For data set [1], the system named is adhesion of SCD patient RBCs to heme-activated HUVECs. The experiment in a line: Endothelialized microfluidic system: SCD patient RBC adhesion to heme-activated HUVECs. The settings on record: 6 hours, n=7; for adhesion of RBCs to heme-activated endothelium: treatment of RBCs; for adhesion of SCD patient RBCs to endothelium: treatment of heme-activated HUVECs. In kind it is cell-based, human. The method, then: Whole blood samples were collected from 7 SCD subjects with HbSS genotype at University Hospitals Cleveland Medical Center, Cleveland, OH, USA. RBCs were isolated after centrifugation of whole blood collected in EDTA and were resuspended in basal cell culture medium (EBM; Lonza, Morristown, NJ, USA) with 10 mM of HEPES to reach 20% hematocrit. Human umbilical vein endothelial cells (HUVECs; Lonza, Morristown, NJ, USA) were seeded within the microfluidic channels and cultured for at least 72 hours at 15 dyne/cm2 prior to experiments. Tested concentrations of 15(S)-HEPE were selected based on clinical pharmacokinetics for 15(S)-HEPE at 2 g/day and 4 g/day Epeleuton doses. Incubation of RBCs or HUVECs with 15(S)-HEPE was conducted at 37° C. for 6 hours. In one experiment 15(S)-HEPE-treated tor vehicle-treated RBCs flowed on untreated HUVECs and in the second experiment untreated RBCs flowed on 15(S)-HEPE-treated or vehicle-treated […]. In both cases a short-term acute activation was conducted where RBCs were supplemented with 40 μM heme and injected through the microfluidic channels for 15 minutes. Non-adherent RBCs were washed with basal cell culture medium. Phase-contrast images of the remaining RBCs were recorded using inverted microscope (DMi8 Leica Microsystems Inc. Deerfield, IL, USA) and the images were analyzed based on previous published methods. Statistical significance was assessed using paired t-test

Data set [2] relates to TβR-I, TβR-II, TβR-III, EGFR and caveolin-1 in Mv1Lu cells. As to the kind of experiment: Sucrose density gradient analysis of TGF-β receptors in Mv1Lu plasma membranes. Type of data set: cell-based, mink. Here is the method: The sucrose gradient fractions were then analyzed by Western blot analysis using anti-TβR-I (type I TGF-β receptor), anti-TβR-II (type II TGF-β receptor), anti-TβR-III (type III TGF-β receptor, betaglycan), anti-EGFR (epidermal growth factor receptor), and anti-caveolin-1 antibodies.
The sucrose gradient fractions were then analyzed by Western blot analysis using anti-TβR-I (type I TGF-β receptor-FIG. 18C), anti-TβR-II (type II TGF-β receptor-FIG. 18D), anti-TβR-III (type III TGF-β receptor, betaglycan-FIG. 18E), anti-EGFR (epidermal growth factor receptor-FIG. 18F), and anti-caveolin-1 antibodies (FIG. 18G).

Data set [3] concerns TGF-β signaling in HepG2 cells. As to the kind of experiment: TGF-β-induced EMT protein expression and type II TGF-β receptor in HepG2 cells. Type of data set: cell-based, human. The method, then: The effects of 15-HEPE on TGF-β-induced signaling and cellular responses were determined. To test the effect of 15-HEPE on TGF-β-induced signaling, the activities of 15-HEPE to regulate TGF-β-stimulated Smad2 phosphorylation and nuclear translocation, both of which are key signaling events leading to TGF-β-induced cellular responses, were tested. One important biological activity of TGF-β is transcriptional activation of genes responsible for epithelial-mesenchymal transition (EMT), which is a crucial event in wound healing, tissue fibrosis, and cancer progression. The effect of 15-HEPE on TGFβ-induced epithelial mesenchymal transition related proteins (such as fibronectin, PAI-1, and N-cadherin etc.) expression in HepG2 and LXR cells were assessed. HepG2 cells (human hepatoma cell line) were treated in increasing doses of 15-HEPE stage II in DMEM containing 0.1% of FBS for 1 hour and continually stimulated with or without 200 picomolar (pM) of TGF-β for 48 hours. […] HepG2 cells (human hepatoma cell line) were treated in increasing doses of 15-HEPE stage II in DMEM containing 0.1% of FBS for 1 hour and continually stimulated with or without 200 picomolar (pM) of TGF-β for 48 hours. The two panels shown in FIG. 18A are two separate experiments run under the same experimental conditions.

The subject of data set [4] is TGF-β-stimulated intracellular signaling (SMAD2/3 phosphorylation) in LX2 cells. As to the kind of experiment: TGF-β-stimulated SMAD2/3 phosphorylation in LX2 liver stellate cells. In kind it is cell-based, human. The settings on record: 0 μM to 100 μM for 24 hours, then 30 min TGF-β stimulation.
Data set [5] deals with UUO mice. The experiment in a line: UUO study: Sirius red staining, kidney fibrosis area. In kind it is in vivo. Here is the method:
Histopathological analysis: To visualize collagen deposition, kidney sections were stained using picro-Sirius red solution. For quantification of interstitial fibrosis area, bright field images in the corticomedullary region were captured using a digital camera at 200-fold magnification, and the positive areas in 5 fields/section were measured.

Data set [6] concerns UUO mice. In kind it is in vivo. Here is the method:
UUO Surgery: On day 0 of the study, UUO surgery was performed on mice under pentobarbital sodium anesthesia. The mouse's hair was first shaved and then abdomen cut open to exteriorize the mouse's left ureter. The ureter was ligated 4-0 nylon sutures at two points. The mouse's peritoneum and skin were then closed with sutures, and the mouse transferred to a clean cage until recovered from the anesthesia. Sham operated mice had their left ureter exposed but not ligated. […]
Animals: Seven-week-old female C57BL/6 mice (i.e., animals) were obtained and were housed and fed with a normal diet under controlled conditions. The animals were maintained in a specific-pathogen free (SPF) facility under controlled conditions of temperature (e.g., 23±2° C.), humidity (e.g., 45±10%), lighting (e.g., 12-hour artificial light and dark cycles; light from 8:00 to 20:00) and air exchange. A high pressure was maintained in the experimental room to prevent contamination of the facility. The animals were housed in TPX cages with a maximum of 4 mice per cage. Sterilized Paper-Clean was used for bedding and replaced once a week. Sterilized solid normal diet was provided ad libitum, being placed in a metal lid on the top of the cage. Pure water was also provided ad libitum from a water bottle equipped with a rubber stopper and a sipper tube. Water bottles were replaced once a week, cleaned, and sterilized in an autoclave and reused. Mice were identified by ear punch and each cage was labeled with a specific identification code.
Animal Monitoring and Sacrifice: The viability, clinical signs and behavior for the mice were monitored daily. Individual body weight was measured daily before treatment during the treatment period. […] The animals were sacrificed by exsanguination through direct cardiac puncture under isoflurane anesthesia at Day 14.

Data set [7] relates to α-SMA, TIMP-1, TGF-β and Collagen Type 1 mRNA. As to the kind of experiment: UUO study: quantitative RT-PCR of kidney. The settings on record: UUO mice kidney, normalized to 36B4, Day 14, mean ± SD. In kind it is in vivo. Here is the method:
Quantitative RT-PCR: Total ribonucleic acid (RNA) was extracted from kidney samples using RNAiso. One μg of RNA was reverse-transcribed using a reaction mixture containing […] (mM) of magnesium chloride (MgCl2), 40 U RNase inhibitor, 0.5 mM dNTP, 6.28 µM random hexamer, 5× first strand buffer, 10 mM dithiothreitol and 200 U MMLV-RT in a final volume of 20 μL. The reaction was carried out for 1 hour at 37° C., followed by 5 minutes at 99° C. Real-time PCR was performed using real-time PCR DICE and TB Green™ Premix Ex Taq™ II. To calculate the relative […] (mRNA) expression level, the expression of each gene (e.g., α-SMA, TIMP-1, TGF-β and Collagen Type 1) was normalized to that of reference gene 36B4 (gene symbol: Rplp0). Information regarding the PCR-primer sets and the plate layout are described in Tables 1 and 2.

Setting [8] is: HepG2 cells, increasing doses, 1 hour, then with or without 200 pM TGF-β for 48 hours.
Setting [9] is: 5 mg/kg PO QD Day 0-13, Day 14, mean ± SD.
Setting [10] is: 50 mg/kg PO QD Day 0-13, Day 14, mean ± SD.
Where [11] appears, read: 250 mg/kg PO QD Day 0-13, Day 14, mean ± SD.

Where two headings read alike, the source gives them in different places.

Turning to `CC/C=C\C[C@H](O)/C=C/C=C\C/C=C\C/C=C\CCCC(=O)O` [15(S)-HEPE, 15(S)-hydroxy-(5Z,8Z,11Z,13E,17Z)-eicosapentaenoic acid], the “adhesion of RBCs to heme-activated endothelium” value in data set [1] (50 µM, p=0.01) is given as “significantly decreased”; in data set [1] (100 µM, p=0.001), “significantly decreased”. Further, the “adhesion of SCD patient RBCs to endothelium” value is given as “significantly decreased” in data set [1] (50 μM, p=0.03) and “significantly decreased” in data set [1] (100 μM, p=0.01).

In the case of `CC/C=C\CC(O)/C=C/C=C\C/C=C\C/C=C\CCCC(=O)O` (stereo not shown) [15-HEPE, 15-hydroxy-eicosa-5Z,8Z,11Z,13E, 17Z-pentaenoic acid], in data set [2] (100 μM, 0, 1, 4, 24 hours), the “localization and abundance of TβR-III, EGFR and caveolin-1” value is reported as “did not change”. For the same compound, the “abundance of TβR-I proteins” value in data set [2] (100 μM, 37° C., 0, 1, 4, 24 hours) is “did not affect the abundance”. In data set [2] (100 μM, 24 hours treatment), the TβR-II degradation entry is “induce degradation” and the “translocation of TβR-I to lipid-raft” value was “induced translocation”. The TβR-II translocation entry in data set [2] (100 μM, from 1 to 4 hours) was “induced TβR-II translocation”. Also, in data set [3] (setting [8]), the “TGF-β induced epithelial mesenchymal transition (EMT) (pro-fibrotic) protein production” value is reported as “blocked” and the “type II TGF-β receptor” value is recorded as “induced degradation”. Further, the TGF-β signaling entry in data set [3] (liver cell lines (HepG2, LX2)) is “directly inhibit”. The “TGF-β-stimulated intracellular signaling (SMAD2/3 phosphorylation)” value in data set [4] was “inhibits”.

As for `CCCCCC(O)/C=C/C=C\C/C=C\CCCCCCC(=O)O` (stereo not shown) [DS109, 15-hydroxy-eicosa-8Z, 11Z, 13E-trienoic acid], in the data set with UUO mice [5] (5 mg/kg PO QD Day 0-13, Day 14, median), the “Sirius red-positive area (%)_Median” value was 3.22 ± 1.47%. Further, the “Sirius red-positive area (%)_Median” value in the data set on UUO mice [5] (50 mg/kg PO QD Day 0-13, Day 14, median) came out at 3.28 ± 1.41%. Moreover, in the data set with UUO mice [5] (250 mg/kg PO QD Day 0-13, Day 14, median), the “Sirius red-positive area (%)_Median” value was 3.76 ± 0.81%. Besides, in the data set on UUO mice [6] (setting [9]), the “Body Weight” value turned out to be 19.1 ± 0.9 g, the “Left Kidney Weight” value is listed as 533 ± 138 mg, the “Left Kidney-to-Body Weight Ratio” value is listed as 2.79 ± 0.65% and the “Right Kidney Weight” value came to 137 ± 7 mg. In addition, in the data set on UUO mice [6] (setting [9]), the “Right Kidney-to-Body Weight Ratio” value was 0.71 ± 0.04%. For the same compound, in the data set with UUO mice [6] (setting [10]), the “Body Weight” value was determined as 18.6 ± 0.6 g, the “Left Kidney Weight” value is given as 523 ± 91 mg, the “Left Kidney-to-Body Weight Ratio” value came to 2.83 ± 0.50% and the “Right Kidney Weight” value worked out at 135 ± 6 mg. In addition, in the data set with UUO mice [6] (setting [10]), the “Right Kidney-to-Body Weight Ratio” value is 0.73 ± 0.05%. In addition, in the data set on UUO mice [6] (setting [11]), the “Body Weight” value was 18.6 ± 0.7 g, the “Left Kidney Weight” value worked out at 425 ± 105 mg, the “Left Kidney-to-Body Weight Ratio” value stood at 2.26 ± 0.53% and the “Right Kidney Weight” value is on record as 130 ± 13 mg. Further, the “Right Kidney-to-Body Weight Ratio” value in the data set on UUO mice [6] (setting [11]) was found to be 0.70 ± 0.05%. Also, in data set [7] (5 mg/kg PO QD Day 0-13), the “Alpha-SMA mRNA expression level” value is given as 3.87 ± 0.82, the “Collagen Type 1 mRNA expression level” value was 10.76 ± 1.45, the “TGF-β mRNA expression level” value is 4.29 ± 0.93 and the “TIMP-1 mRNA expression level” value is 153.60 ± 37.12. Further, in data set [7] (50 mg/kg PO QD Day 0-13), the “Alpha-SMA mRNA expression level” value was found to be 4.61 ± 3.15, the “Collagen Type 1 mRNA expression level” value stood at 15.23 ± 11.52, the “TGF-β mRNA expression level” value amounted to 6.01 ± 4.77 and the “TIMP-1 mRNA expression level” value was 167.70 ± 122.60. For the same compound, in data set [7] (250 mg/kg PO QD Day 0-13), the “Alpha-SMA mRNA expression level” value came to 4.85 ± 1.22, the “Collagen Type 1 mRNA expression level” value was 13.88 ± 1.91, the “TGF-β mRNA expression level” value is reported as 5.48 ± 0.36 and the “TIMP-1 mRNA expression level” value is 180.90 ± 23.12.

These data come from patent US20240299328A1, “COMPOSITIONS COMPRISING 15-HEPE AND METHODS OF TREATING AND/OR PREVENTING HEMATOLOGIC DISORDERS AND RELATED DISEASES” (Afimmune Limited, priority 2023, published 2024).
